We go through 32 compounds from patent publication US9850227B2 (YUHAN CORPORATION, priority 2011, dated 2017).

In general, EC50 refers to the concentration giving half of the maximal effect.

Structures can show the parent of a compound that is named as a salt.

The target in the experiment is T1, human 5-HT4(a) (Homo sapiens, UniProt Q13639).
T1 construct: host or cells: GeneBIAzer HTR4-CRE-bla CHO-K1 cells
T1 sequence (Q13639 1-387 isoform Q13639-2): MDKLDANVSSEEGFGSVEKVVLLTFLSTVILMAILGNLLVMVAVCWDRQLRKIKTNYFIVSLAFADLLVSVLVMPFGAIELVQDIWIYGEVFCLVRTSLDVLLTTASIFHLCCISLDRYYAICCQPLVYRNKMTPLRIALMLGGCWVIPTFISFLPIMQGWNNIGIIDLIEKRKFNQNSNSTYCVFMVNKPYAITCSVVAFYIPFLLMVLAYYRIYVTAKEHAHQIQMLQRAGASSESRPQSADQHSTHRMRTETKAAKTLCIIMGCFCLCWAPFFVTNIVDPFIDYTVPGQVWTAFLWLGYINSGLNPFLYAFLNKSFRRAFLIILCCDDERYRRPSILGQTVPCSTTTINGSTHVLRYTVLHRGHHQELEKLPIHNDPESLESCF
In words: Evaluation of agonistic activity in CHO-K1 cells expressing human 5-HT4(a) (GeneBIAzer HTR4-CRE-bla CHO-K1 cells, beta-lactamase fluorescence ratio, EC50 from 8 concentrations). The class given is cell-based. The method, then:
Evaluation of Agonistic Activity in CHO-K1 Cells Expressing Human 5-HT4(a)
As CHO-K1 cells stably expressing human 5-HT4(a), we used the GeneBIAzer HTR4-CRE-bla CHO-K1 cells (Invitrogen Corp.). The cells were cultured, under the condition of 37° C. and 5% CO2, in a DMEM supplemented with 10% fetal bovine serum (FBS), 25 mM HEPES (pH7.4), 600 μg/ml hygromycin B, 0.1 mM non-essential amino acids, 100 unit/ml penicillin and 100 μg/ml streptomycin. Subcultures were performed three times per one week, each being at less than 80% confluence. At the previous day before treating test compounds, the cells were collected using 0.5% trypsin/EDTA and then diluted with a DMEM supplemented with 1% FBS, 25 mM HEPES, and 0.1 mM non-essential amino acids into 3.125×10^5 cells/ml. 32 μl of the diluted cells were added into 384-well plate (10^4 cells per well) and then incubated overnight. After the overnight culture, 8 μl of the medium having 1% of DMSO was added into the cell-free control well and the non-stimulating control well, respectively. 8 μl of the respective test compound dilutions (which had been prepared by diluting by 100-times with the medium as mentioned in the above) having 1% of DMSO were added to the respective remaining wells. After being cultured in the incubator for 5 hours, the wells of the 384-plate were treated with the substrate solution (8 μl per well) prepared according to the vendor's instruction (i.e., Invitrogen's instruction), and then incubated in the dark room for additional two hours. Agonistic activities on 5-HT4 receptor were evaluated, on the basis of fluorescence values of the cleavage-products by beta-lactamase. After exciting to 410 nm of wavelength using a fluorescence detector (Genios Pro), we measured the fluorescence values at two emission wavelengths (first wavelength: 465 nm, second wavelength: 535 nm). Data were analyzed on the basis of the ratio of fluorescence intensities of each well at the respective wavelengths. Each EC50 value was calculated by non-linear regression analysis using the “GraphPad Prism” program, based on the activities according to 8-different concentrations of the test compounds.
With `CCCc1cc(N2CCC[C@@H](NC(=O)CO)C2)nc(Nc2cc(N)cc(C#N)c2)n1` [Example 255, (R)—N-{1-[2-(3-amino-5-cyanophenylamino)-6-propylpyrimidin-4-yl]piperidin-3-yl}-2-hydroxyacetamide], the EC50 came to 0.016 nM.

As for `CCCc1cc(N2CCC[C@@H](NCC)C2)nc(Nc2cc(N)cc(C(F)(F)F)c2)n1` [Example 290, (R)—N^1-[4-(3-ethylaminopiperidin-1-yl)-6-propylpyrimidin-2-yl]-5-(trifluoromethyl)benzene-1,3-diamine], the EC50 was determined as 0.0041 nM.

Consider `CCCc1cc(N2CCC[C@@H](NCC(C)(C)C)C2)nc(Nc2ccc(C)c(C#N)c2)n1` [Example 211, (R)-2-methyl-5-{4-[3-(neopentylamino)piperidin-1-yl]-6-propylpyrimidin-2-ylamino}benzonitrile], for which the EC50 came to 0.023 nM.

For the compound `CCCc1cc(N2CCCC3CCCCC32)nc(Nc2cccc([N+](=O)[O-])c2)n1` (centres unmarked) [Example 188, N-(3-nitrophenyl)-4-(octahydroquinolin-1(2H)-yl)-6-propylpyrimidin-2-amine], the EC50 came out at 0.43 nM.

Regarding `CCCc1cc(N2CCC[C@@H](NC(C)=O)C2)nc(Nc2cc(N)cc(C(F)(F)F)c2)n1` [Example 278, (R)—N-(1-{2-[3-amino-5-(trifluoromethyl)phenylamino]-6-propylpyrimidin-4-yl}piperidin-3-yl)acetamide], the concentration giving a half-maximal response (EC50) was found to be 0.01 nM.

With `CCCCc1cc(N2CCC[C@@H](NC)C2)nc(Nc2ccc(C)c(C#N)c2)n1` [Example 311, (R)-5-({4-butyl-6-[3-(methylamino)piperidin-1-yl]pyrimidin-2-yl}amino)-2-methylbenzonitrile], the concentration for a half-maximal effect (EC50) is 0.0026 nM.

Take `CCCc1cc(N2CCC[C@@H](NCC3CC3)C2)nc(Nc2ccc(C)c(C#N)c2)n1` [Example 267, (R)-5-{4-[3-(cyclopropylmethylamino)piperidin-1-yl]-6-propylpyrimidin-2-ylamino}-2-methylbenzonitrile]: the concentration giving a half-maximal response (EC50) was 0.088 nM.

Regarding `CCCc1cc(N2CCCCC2)nc(Nc2ccc3cc[nH]c3c2)n1` [Example 76, N-[4-(piperidin-1-yl)-6-propylpyrimidin-2-yl]-1H-indol-6-amine], the half-maximal effective concentration (EC50) worked out at 0.061 nM.

`CCCCc1cc(N2CCC[C@@H](NC)C2)nc(Nc2cccc(C#N)c2)n1` [Example 329, (R)-3-({4-butyl-6-[3-(methylamino)piperidin-1-yl]pyrimidin-2-yl}amino)benzonitrile]: the half-maximal effective concentration (EC50) came out at 0.054 nM.

On to `CCCc1cc(N2CCCC(NC(C)=O)C2)nc(Nc2ccc(F)c(N)c2)n1` (centres unmarked) [Example 276, N-{1-[2-(3-amino-4-fluorophenylamino)-6-propylpyrimidin-4-yl]piperidin-3-yl}acetamide], for which the concentration giving a half-maximal response (EC50) was found to be 0.018 nM.

`CCCCc1cc(N2CCC[C@@H](NC(C)=O)C2)nc(Nc2ccc(N)c(C(F)(F)F)c2)n1` [Example 238, (R)—N-{1-[2-(4-amino-3-trifluoromethylphenylamino)-6-butylpyrimidin-4-yl]piperidin-3-yl}acetamide]: the EC50 is 0.0083 nM.

In the case of `CCCc1cc(N2CCCCC2)nc(Nc2ccc(C)c([N+](=O)[O-])c2)n1` [Example 47, N-(4-methyl-3-nitrophenyl)-4-(piperidin-1-yl)-6-propylpyrimidin-2-amine], the EC50 was found to be 0.15 nM.

Turning to `CCCc1cc(N2CCC[C@@H](NC(=O)CO)C2)nc(Nc2ccc(F)c(C#N)c2)n1` [Example 246, (R)—N-{1-[2-(3-cyano-4-fluorophenylamino)-6-propylpyrimidin-4-yl]piperidin-3-yl}-2-hydroxyacetamide], the EC50 amounted to 0.06 nM.

In the case of `CCCc1cc(N2CCCC3CCCCC32)nc(Nc2ccc(Cl)c([N+](=O)[O-])c2)n1` (centres unmarked) [Example 190, N-(4-chloro-3-nitrophenyl)-4-(octahydroquinolin-1(2H)-yl)-6-propylpyrimidin-2-amine], the EC50 came out at 0.46 nM.

As for `CCCc1cc(N2CCC[C@@H](NC)C2)nc(Nc2ccc(F)c(C(F)(F)F)c2)n1` [Example 287, (R)-(4-fluoro-3-trifluoromethylphenyl)-[4-(3-methylaminopiperidin-1-yl)-6-propylpyrimidin-2-yl]amine], the half-maximal effective concentration (EC50) came to 0.026 nM.

For `CCCc1cc(N2CCCCC2CC)nc(Nc2cccc(SC)c2)n1` (centres unmarked) [Example 104, 4-(2-ethylpiperidin-1-yl)-N-[3-(methylthio)phenyl]-6-propylpyrimidin-2-amine], the EC50 amounted to 0.36 nM.

Regarding `CCCc1cc(N2CCNC[C@H]2C)nc(Nc2cc(N)cc(C#N)c2)n1` [Example 129, (R)-3-amino-5-[4-(2-methylpiperazin-1-yl)-6-propylpyrimidin-2-ylamino]benzonitrile], the EC50 worked out at 0.0041 nM.

As for `CCCCc1cc(N2CCC[C@@H](NC)C2)nc(Nc2ccc(OC)c(N)c2)n1` [Example 333, (R)—N^1-{4-butyl-6-[3-(methylamino)piperidin-1-yl]pyrimidin-2-yl}-4-methoxybenzene-1,3-diamine], the EC50 was found to be 0.132 nM.

In the case of `CCCc1cc(N2CCC[C@@H](NC(C)=O)C2)nc(Nc2ccc(F)c(C#N)c2)n1` [Example 268, (R)—N-{1-[2-(3-cyano-4-fluorophenylamino)-6-propylpyrimidin-4-yl]piperidin-3-yl}acetamide], the EC50 came to 0.025 nM.

For `CCCc1cc(N2CCC[C@@H](NC)C2)nc(Nc2ccc(F)c(C#N)c2)n1` [Example 282, (R)-2-fluoro-5-[4-(3-methylaminopiperidin-1-yl)-6-propylpyrimidin-2-ylamino]benzonitrile], the concentration for a half-maximal effect (EC50) came to 0.073 nM.

On to `CCCCc1cc(N2CCC[C@@H](NC(C)=O)C2)nc(Nc2cccc(C#N)c2)n1` [Example 272, (R)—N-{1-[6-butyl-2-(3-cyanophenylamino)-pyrimidin-4-yl]-piperidin-3-yl}-acetamide hydrochloride], for which the concentration giving a half-maximal response (EC50) worked out at 0.011 nM.

On to `CCCc1cc(N2CCCCC2CCO)nc(Nc2ccc(C)c([N+](=O)[O-])c2)n1` (centres unmarked) [Example 174, 2-{1-[2-(4-methyl-3-nitrophenylamino)-6-propylpyrimidin-4-yl]piperidin-2-yl}ethanol], for which the EC50 stood at 0.039 nM.

On to `CCCc1cc(N2CCC[C@@H](NC(=O)CO)C2)nc(Nc2ccc(Cl)c(N)c2)n1` [Example 251, (R)—N-{1-[2-(3-amino-4-chlorophenylamino)-6-propylpyrimidin-4-yl]piperidin-3-yl}-2-hydroxyacetamide], for which the EC50 came to 0.016 nM.

For `CCCc1cc(N2CCNC[C@H]2C)nc(Nc2cccc(C(F)(F)F)c2)n1` [Example 119], the half-maximal effective concentration (EC50) worked out at 0.156 nM.

Regarding `CCCc1cc(N2CCCCC2CCO)nc(Nc2cccc(C(F)(F)F)c2)n1` (centres unmarked) [Example 147, 2-{1-[6-propyl-2-(3-trifluoromethylphenylamino)pyrimidin-4-yl]piperidin-2-yl}ethanol], the EC50 is 0.31 nM.

Regarding `CCCc1cc(N2CCC[C@@H](NC)C2)nc(Nc2ccc(C)c(N)c2)n1` [Example 310, (R)-4-methyl-N^1-{4-[3-(methylamino)piperidin-1-yl]-6-propylpyrimidin-2-yl}benzene-1,3-diamine], the EC50 came to 0.047 nM.

As to `CCCc1cc(N2CCNC[C@H]2C)nc(Nc2ccc(N)c(C#N)c2)n1` [Example 127, (R)-2-amino-5-[4-(2-methylpiperazin-1-yl)-6-propylpyrimidin-2-ylamino]benzonitrile], the EC50 was determined as 0.053 nM.

In the case of `CCCN[C@@H]1CCCN(c2cc(CCC)nc(Nc3cccc(C#N)c3)n2)C1` [Example 223, (R)-3-{4-[3-(propylamino)piperidin-1-yl]-6-propylpyrimidin-2-ylamino}benzonitrile], the half-maximal effective concentration (EC50) is 0.045 nM.

With `CCCc1cc(N2CCC[C@@H](NCC3CC3)C2)nc(Nc2cc(N)cc(C(F)(F)F)c2)n1` [Example 231, (R)—N^1-{4-[3-(cyclopropylmethylamino)piperidin-1-yl]-6-propylpyrimidin-2-yl}-5-(trifluoromethyl)benzene-1,3-diamine], the concentration for a half-maximal effect (EC50) turned out to be 0.0063 nM.

For `CCCc1cc(N2CCCCC2CCO)nc(Nc2ccc(F)c(C#N)c2)n1` (centres unmarked) [Example 178, 2-fluoro-5-{4-[2-(2-hydroxyethyl)piperidin-1-yl]-6-propylpyrimidin-2-ylamino}benzonitrile], the 50% effective concentration (EC50) worked out at 0.082 nM.

In the case of `CCCc1cc(N2CCC[C@@H](NCc3cc(C)c(C)o3)C2)nc(Nc2ccc(C)c(C#N)c2)n1` [Example 215, (R)-5-(4-{3-[(4,5-dimethylfuran-2-ylmethyl)amino]piperidin-1-yl}-6-propylpyrimidin-2-ylamino)-2-methylbenzonitrile], the concentration for a half-maximal effect (EC50) stood at 0.064 nM.

Take `CCCc1cc(N2CCC[C@@H](NC(=O)CO)C2)nc(Nc2ccc(C)c(Cl)c2)n1` [Example 253, (R)—N-{1-[2-(3-chloro-4-methylphenylamino)-6-propylpyrimidin-4-yl]piperidin-3-yl}-2-hydroxyacetamide]: the EC50 was 0.057 nM.
